Data from US4496555A, “Compounds and compositions for inhibiting estrogen sulfotransferase transferase activity, process and novel intermediates therein” (Wayne State University, priority 1983, dated 1985).

What was measured:
[1] = molecular target: T1, Bovine Adrenal Estrogen Sulfotransferase (Bos taurus, UniProt P19217); assay: Purified bovine adrenal estrogen sulfotransferase inhibition; format: biochemical; conditions: purified bovine adrenal enzyme; inhibitor concentration not given
T1 construct: from tissue; host or cells: bovine adrenal
T1 sequence (P19217 1-295): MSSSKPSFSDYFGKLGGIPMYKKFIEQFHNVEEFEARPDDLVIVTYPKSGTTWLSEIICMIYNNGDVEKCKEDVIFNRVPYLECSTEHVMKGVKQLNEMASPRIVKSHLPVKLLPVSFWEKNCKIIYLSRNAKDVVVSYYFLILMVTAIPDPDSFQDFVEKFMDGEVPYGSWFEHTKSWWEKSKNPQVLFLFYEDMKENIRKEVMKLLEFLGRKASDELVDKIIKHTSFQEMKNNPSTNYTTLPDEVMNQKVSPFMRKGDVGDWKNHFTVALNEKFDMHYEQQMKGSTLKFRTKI
Experimental: (§1) The estrogen sulfotransferase inhibiting activity of compounds within the scope of the invention are determined by inhibition of bovine adrenal or porcine uterine estrogen sulfotransferase. The desired concentration of estrogen sulfates is determined by comparisons after appropriate incubations with and without inhibitors and at various concentrations of inhibitors in the incubation. A detailed description of materials and methods for both bovine adrenal sulfotransferase inhibition and metabolism of estrogen in porcine uterus during implantation is described in U.S. Pat. No. 4,340,602 incorporated herein by reference above. Additionally, U.S. Pat. No. 4,340,602 describes materials and methods for determining estrogen sulfurylation in human endometrial curettings.
*Methods described in: Rozhin, J., et al. J. Biol. Chem. 252, 7214 (1977)

[2] = molecular target: T2, Porcine Uterine Estrogen Sulfotansferase (Sus scrofa, UniProt A0A286ZW98); assay: Inhibition of porcine uterine estrogen sulfotransferase (estrogen sulfates formed); format: biochemical; conditions: control 1.26 p mole
T2 sequence (A0A286ZW98 1-296): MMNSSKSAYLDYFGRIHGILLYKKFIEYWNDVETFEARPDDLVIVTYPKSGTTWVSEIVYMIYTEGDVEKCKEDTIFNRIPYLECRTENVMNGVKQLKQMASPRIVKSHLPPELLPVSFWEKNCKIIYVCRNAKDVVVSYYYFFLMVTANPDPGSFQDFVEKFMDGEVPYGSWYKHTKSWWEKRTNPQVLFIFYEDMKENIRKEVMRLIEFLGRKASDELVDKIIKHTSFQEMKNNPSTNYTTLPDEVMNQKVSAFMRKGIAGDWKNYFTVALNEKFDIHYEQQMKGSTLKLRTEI
Experimental: as §1

[3] = test system: receptor binding and nuclear migration of physiological levels of 17β-estradiol; conditions: Rozhin et al 1977; cited from earlier work
[4] = test system: estrogen sulfurylation; conditions: Rozhin et al, J. Biol Chem., 1977, 252, 7214; cited from earlier work

Compound | % Inhibition [1] [%] | Estrogen Sulfates ([2]; 10-fold inhibitor) [p mole] | Estrogen Sulfates ([2]; 10^2-fold inhibitor) [p mole] | Estrogen Sulfates ([2]; 10^3 fold inhibitor) [p mole] | interference with receptor binding and nuclear migration of 17β-estradiol [3] | estrogen sulfurylation [4]
C[C@]12CC[C@@H]3c4cccc(F)c4CC[C@H]3[C@@H]1CC[C@@H]2O [4-F-1,3,5(10)estratriene 17β-ol, 4-Fluoroestra-1,3,5-(10)-trien-17β-ol] | 81 | 1.07 | 1.08 | 0.67 | – | –
COc1ccc2c(c1[N+](=O)[O-])CC[C@@H]1[C@@H]2CC[C@]2(C)C(=O)CC[C@@H]12 [4-nitroestrone 3-0-methylether] | – | – | – | – | without interfering with the receptor binding and nuclear migration | blocks estrogen sulfurylation
